From patent US12421209B2, “Compounds” (Hoffmann-La Roche Inc., priority 2021, dated 2025)

What was measured:
Type in all cases: cell-based
hERG channels = target: T1, hERG channels (Homo sapiens, UniProt Q12809); assay: hERG screening assay (automated patch clamp, CHO crelox hERG cell line); conditions: CHO-hERG cells, whole-cell patch clamp at 35-37° C.
T1 construct: Evotec (cryopreserved) ATCC PTA-6812; host or cells: CHO (Chinese hamster ovary) cells
Excerpt: The CHO crelox hERG cell line (ATCC reference Nr. PTA-6812, female Chinese hamster cells) was generated and validated at Roche. Ready-to-use frozen instant CHO-hERG cells were cryopreserved at Evotec (Germany) and used directly in the experiments.
The extracellular solution contains (in mM): NaCl 150; KCl 4; CaCl2) 1; MgCl2 1; HEPES 10; pH 7.2-7.4 with NaOH, osmolarity 290-330 mOsm. The internal solution contains (in mM): KCl, 10; KF, 100; NaCl, 10; HEPES, 10; EGTA, 20; pH=7.0-7.4 with KOH, osmolarity 260-300 mOsm.
The effects of a compound on hERG K+-currents parameters will be evaluated at 2 concentrations in at least 4 cells.
The hERG test is performed using automated patch clamp system SynchroPatch® 384 (Nanion Technologies GmbH, Germany). K+ currents are measured with the patch-voltage-clamp technique in the whole-cell configuration at 35-37° C.
Cells were held at a resting voltage of −80 mV and they were stimulated by a voltage pattern shown in FIG. 1 to activate hERG channels and conduct outward IKhERG current, at a stimulation frequency of 0.1 Hz (6 bpm)
The amplitudes of IKhERG were recorded in each concentration of drug and they were compared to the vehicle control values (taken as 100%) to define fractional blocks. The concentration-response data were fitted with the following relationship: […]

NLRP3 [1] = target: T2, NLRP3 (Homo sapiens, UniProt Q96P20); assay: THP-1 cells pyroptosis assay (LPS priming, nigericin, resazurin read-out); design: Seed THP-1 cells (25,000 cells/well) containing 1.0 μg/ml LPS; host or cells: THP-1 cells; conditions: 1.0 μg/ml LPS, 5 μM nigericin
T2 sequence (Q96P20 whole entry): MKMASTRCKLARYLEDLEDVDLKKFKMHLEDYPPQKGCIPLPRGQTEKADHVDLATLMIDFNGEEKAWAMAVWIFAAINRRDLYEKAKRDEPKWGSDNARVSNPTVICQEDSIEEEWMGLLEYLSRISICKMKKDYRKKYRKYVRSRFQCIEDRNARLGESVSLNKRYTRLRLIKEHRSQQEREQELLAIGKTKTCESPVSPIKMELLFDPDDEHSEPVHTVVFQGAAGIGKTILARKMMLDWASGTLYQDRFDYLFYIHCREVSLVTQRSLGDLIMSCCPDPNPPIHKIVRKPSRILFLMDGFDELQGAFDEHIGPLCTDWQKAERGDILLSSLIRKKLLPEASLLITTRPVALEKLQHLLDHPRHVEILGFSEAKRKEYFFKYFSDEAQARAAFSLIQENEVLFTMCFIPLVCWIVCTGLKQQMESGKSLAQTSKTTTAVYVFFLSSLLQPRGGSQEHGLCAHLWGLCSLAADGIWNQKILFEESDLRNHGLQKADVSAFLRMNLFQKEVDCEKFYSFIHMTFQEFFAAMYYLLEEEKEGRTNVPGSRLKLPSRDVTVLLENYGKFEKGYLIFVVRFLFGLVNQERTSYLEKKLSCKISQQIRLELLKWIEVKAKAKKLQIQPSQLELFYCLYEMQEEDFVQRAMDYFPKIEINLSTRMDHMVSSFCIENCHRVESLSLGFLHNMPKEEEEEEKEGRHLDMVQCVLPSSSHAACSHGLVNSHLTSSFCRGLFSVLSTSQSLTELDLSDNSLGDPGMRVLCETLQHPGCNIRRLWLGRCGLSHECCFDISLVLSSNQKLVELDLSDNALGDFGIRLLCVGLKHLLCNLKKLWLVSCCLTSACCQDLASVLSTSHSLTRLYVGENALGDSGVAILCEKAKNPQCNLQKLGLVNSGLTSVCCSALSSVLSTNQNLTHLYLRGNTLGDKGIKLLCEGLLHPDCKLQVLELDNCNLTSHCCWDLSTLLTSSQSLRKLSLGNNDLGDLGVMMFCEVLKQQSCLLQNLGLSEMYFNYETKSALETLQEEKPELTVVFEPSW
Description: THP-1 cells (ATCC #TIB-202) were grown in RPMI containing L-glutamine (Gibco #11835) supplemented with 1 mM sodium pyruvate (Sigma #S8636) and penicillin (100 units/ml)/streptomycin (0.1 mg/ml) (Sigma #P4333) in 10% Fetal Bovine Serum (FBS) (Sigma #F0804). The cells were routinely passaged and grown to confluency (˜10^6 cells/ml). On the day of the experiment, THP-1 cells were harvested and resuspended into RPMI medium (without FBS). The cells were then counted and viability (>90%) checked by Trypan blue (Sigma #T8154). Appropriate dilutions were made to give a concentration of 625,000 cells/ml. To this diluted cell solution was added LPS (Sigma #L4524) to give a lug/ml Final Assay Concentration (FAC). 40 μl of the final preparation was aliquoted into each well of a 96-well plate. The plate thus prepared was used for compound screening.
The following method step-by-step assay was followed for compound screening. • 1. Seed THP-1 cells (25,000 cells/well) containing 1.0 μg/ml LPS in 40 μl of RPMI medium (without FBS) in 96-well, black walled, clear bottom cell culture plates coated with poly-D-lysine (VWR #734-0317) • 2. Add 5 μl compound (8 points half-log dilution, with 10 μM top dose) or vehicle (DMSO 0.1% FAC) to the appropriate wells • 3. Incubate for 3 hours at 37° C., 5% CO2 • 4. Add 5 μl nigericin (Sigma #N7143) (FAC 5 μM) to all wells • 5. Incubate for 1 hr at 37° C., 5% CO2 • 6. At the end of the incubation period, spin plates at 300×g for 3 mins and remove supernatant • 7. Then add 50 μl of resazurin (Sigma #R7017) (FAC 100 μM resazurin in RPMI medium without FBS) and incubate plates for a further 1-2 hours at 37° C. and 5% CO2 • 8. Plates were read in an Envision reader at Ex 560 nm and Em 590 nm • 9. IC50 data is fitted to a non-linear regression equation (log inhibitor vs response-variable slope 4-parameters)

NLRP3 [2] = target: T2, NLRP3; assay: Human whole blood IL-1β release assay (LPS, nigericin, AlphaLisa); design: Human whole blood in Li-heparin tubes was obtained from healthy donors; from tissue; host or cells: human whole blood from healthy donors; conditions: 10 μM nigericin
Description: For systemic delivery, the ability to inhibit NLRP3 when the compounds are present within the bloodstream is of great importance. For this reason, the NLRP3 inhibitory activity of a number of compounds in human whole blood was investigated in accordance with the following protocol.
Human whole blood in Li-heparin tubes was obtained from healthy donors from a volunteer donor panel. • 1. Plate out 80 μl of whole blood containing lug/ml of LPS in 96-well, clear bottom cell culture plate (Corning #3585) • 2. Add 10 μl compound (8 points half-log dilution with 10 μM top dose) or vehicle (DMSO 0.1% FAC) to the appropriate wells • 3. Incubate for 3 hours at 37° C., 5% CO2 • 4. Add 10 μl nigericin (Sigma #N7143) (10 μM FAC) to all wells • 5. Incubate for 1 hr at 37° C., 5% CO2 • 6. At the end of the incubation period, spin plates at 300×g for 5 mins to pellet cells and remove 20 μl of supernatant and add to 96-well v-bottom plates for IL-1β analysis (note: these plates containing the supernatants can be stored at −80° C. to be analysed at a later date) • 7. IL-1β was measured according to the manufacturer protocol (Perkin Elmer-AlphaLisa IL-1 Kit AL220F-5000) • 8. IC50 data is fitted to a non-linear regression equation (log inhibitor vs response-variable slope 4-parameters)

T1 sequence (Q12809 whole entry): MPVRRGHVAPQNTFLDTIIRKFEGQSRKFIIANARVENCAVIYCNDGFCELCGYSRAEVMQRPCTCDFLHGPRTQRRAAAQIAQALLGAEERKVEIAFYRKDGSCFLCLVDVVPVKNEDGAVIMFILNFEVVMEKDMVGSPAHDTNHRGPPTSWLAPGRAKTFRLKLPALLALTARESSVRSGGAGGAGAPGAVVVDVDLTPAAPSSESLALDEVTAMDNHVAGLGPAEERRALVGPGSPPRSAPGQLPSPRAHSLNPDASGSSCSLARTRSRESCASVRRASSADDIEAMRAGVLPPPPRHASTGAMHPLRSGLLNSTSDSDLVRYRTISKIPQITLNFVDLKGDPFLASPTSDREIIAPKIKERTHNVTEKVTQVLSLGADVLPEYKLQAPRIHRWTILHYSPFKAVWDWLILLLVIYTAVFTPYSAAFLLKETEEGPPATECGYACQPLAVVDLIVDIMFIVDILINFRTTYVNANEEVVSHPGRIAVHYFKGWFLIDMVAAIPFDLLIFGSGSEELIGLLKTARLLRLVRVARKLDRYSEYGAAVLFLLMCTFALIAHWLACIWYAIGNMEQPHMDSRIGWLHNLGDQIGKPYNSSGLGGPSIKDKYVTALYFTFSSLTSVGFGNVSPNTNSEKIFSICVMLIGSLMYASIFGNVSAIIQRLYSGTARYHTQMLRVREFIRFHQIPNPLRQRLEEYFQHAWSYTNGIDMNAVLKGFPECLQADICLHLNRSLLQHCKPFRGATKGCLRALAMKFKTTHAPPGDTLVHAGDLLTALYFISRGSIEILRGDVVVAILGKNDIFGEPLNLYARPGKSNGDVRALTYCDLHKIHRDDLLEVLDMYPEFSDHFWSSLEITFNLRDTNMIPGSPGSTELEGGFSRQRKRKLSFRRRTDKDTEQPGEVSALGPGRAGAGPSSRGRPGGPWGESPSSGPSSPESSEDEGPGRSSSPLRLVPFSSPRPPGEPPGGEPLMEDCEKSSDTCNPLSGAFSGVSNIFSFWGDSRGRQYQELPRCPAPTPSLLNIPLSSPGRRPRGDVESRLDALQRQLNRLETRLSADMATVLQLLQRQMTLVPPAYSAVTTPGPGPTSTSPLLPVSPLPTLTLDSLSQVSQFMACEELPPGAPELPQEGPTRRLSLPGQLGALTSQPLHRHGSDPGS

Row | IC50 (NLRP3 [1]) [nM] | IC50 (NLRP3 [2]) [nM] | SMILES | IC50 (hERG channels) [nM]
1 | 1.7 | 5.4 | CCN1CCC[C@@H](Nc2nnc(-c3ccc(C(F)(F)F)cc3O)c(C)n2)C1 [Example 4, 2-[3-[[(3R)-1-Ethyl-3-piperidyl]amino]-5-methyl-1,2,4-triazin-6-yl]-5-(trifluoromethyl) phenol] | > 10000
2 | 1.1 | 3.7 | CCN1CCC[C@@H](Nc2nnc(-c3ccc4c(c3O)CCO4)c(C)n2)C1 [Example 7, 5-[3-[[(3R)-1-Ethyl-3-piperidyl]amino]-5-methyl-1,2,4-triazin-6-yl]-2,3-dihydrobenzofuran-4-ol] | > 20000
3 | 1.6 | 57.6 | CCN1CCC[C@@H](Nc2nnc(-c3c(C)cc(C(F)(F)F)cc3O)c(C)n2)C1 [Example 21, 2-[3-[[(3R)-1-Ethyl-3-piperidyl]amino]-5-methyl-1,2,4-triazin-6-yl]-3-methyl-5-(trifluoromethyl) phenol] | 
4 | 1.2 | 10.2 | CCN1CCC[C@@H](Nc2nnc(-c3ccc(OC(F)(F)F)cc3O)c(C)n2)C1 [Example 22, 2-[3-[[(3R)-1-Ethyl-3-piperidyl]amino]-5-methyl-1,2,4-triazin-6-yl]-5-(trifluoromethoxy) phenol] | 
5 | 40.1 | 40.5 | CCN1C[C@@H](O)C[C@@H](Nc2nnc(-c3ccc(C(F)(F)F)cc3O)c(C)n2)C1 [Example 23, (3S,5R)-1-Ethyl-5-[[6-[2-hydroxy-4-(trifluoromethyl)phenyl]-5-methyl-1,2,4-triazin-3-yl]amino]piperidin-3-ol] | 
6 | 49.6 | 125 | CCN1C[C@@H](O)C[C@@H](Nc2nnc(-c3c(C)cc(C(F)(F)F)cc3O)c(C)n2)C1 [Example 24, (3S,5R)-1-Ethyl-5-[[6-[2-hydroxy-6-methyl-4-(trifluoromethyl)phenyl]-5-methyl-1,2,4-triazin-3-yl]amino]piperidin-3-ol] | 
7 | 0.7 | 6.3 | CCN1CCC[C@@H](Nc2nnc(-c3ccc4c(c3O)CCC4)c(C)n2)C1 [Example 25, 5-[3-[[(3R)-1-Ethyl-3-piperidyl]amino]-5-methyl-1,2,4-triazin-6-yl]indan-4-ol] | 
